Laboratory results taken from patent publication US12297164B2, “Benzidine compound and application thereof” (Guangzhou IMD therapeutics Co., Ltd., priority 2019, dated 2025).
Where two headings read alike, the source gives them in different places.

Legend:
RORγ [1] = target: T1, RORγ (Homo sapiens (Human), UniProt P51449); experiment: AlphaScreen inhibitory activity on RORγ protein; format: biochemical; details: RORγ 200 nM, bSRC1-4 50 nM
Procedure: Experimental materials: target protein RORγ with the final concentration of 200 nM; experimental buffer (10×) MOPS (500 mM) PH 7.4, CHAPS (0.5 mM), NaF (500 mM), and
The mixture was centrifuged at room temperature at 1000 rpm for 1 minute to make the system fully mixed. After being wrapped in tin foil, the mixture was incubated in the dark for 1.5 hours.
Target sequence in this assay (P51449 whole entry): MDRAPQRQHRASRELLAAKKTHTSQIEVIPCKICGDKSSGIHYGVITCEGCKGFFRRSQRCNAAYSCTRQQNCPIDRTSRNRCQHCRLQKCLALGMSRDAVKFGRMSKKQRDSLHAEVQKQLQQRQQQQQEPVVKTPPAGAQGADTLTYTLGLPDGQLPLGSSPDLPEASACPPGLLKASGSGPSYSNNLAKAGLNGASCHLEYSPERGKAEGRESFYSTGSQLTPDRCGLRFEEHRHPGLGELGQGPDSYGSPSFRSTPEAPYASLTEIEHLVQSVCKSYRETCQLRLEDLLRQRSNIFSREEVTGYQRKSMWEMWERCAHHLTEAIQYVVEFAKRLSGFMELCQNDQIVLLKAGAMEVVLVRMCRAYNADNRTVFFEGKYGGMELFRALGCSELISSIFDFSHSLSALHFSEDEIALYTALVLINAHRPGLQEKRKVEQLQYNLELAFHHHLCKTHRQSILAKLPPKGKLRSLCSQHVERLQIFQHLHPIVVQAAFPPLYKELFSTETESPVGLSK

RORγ [2] = target: T1, RORγ; experiment: Luciferase double reporter gene assay (Gal4-RORγLBD) in 293T cells; format: cell-based; details: 24 hours of incubation
Procedure: (§1) The cells were cultured in a 96-well plate one day before transfection, with a cell density of 1.5×10^4 cells/well. After 24 hours of adherent growth, the cells were subjected to transient transfection by using the method of double reporter gene co-transfection with the transfection reagent of Lipo-fectamine 2000, where the transfection reagent and plasmids were diluted with Opti-MEM reagent, respectively. […] Each sample had 3 duplicate wells.
Target sequence in this assay (P51449 269-508): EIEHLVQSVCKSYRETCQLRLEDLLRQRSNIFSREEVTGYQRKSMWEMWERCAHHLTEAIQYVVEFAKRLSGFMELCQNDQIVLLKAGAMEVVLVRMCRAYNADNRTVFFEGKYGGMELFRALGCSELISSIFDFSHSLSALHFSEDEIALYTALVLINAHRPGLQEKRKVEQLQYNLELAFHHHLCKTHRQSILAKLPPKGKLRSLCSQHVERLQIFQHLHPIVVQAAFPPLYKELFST

RORγ [3] = target: T1, RORγ; experiment: TSA detection (thermal shift); format: binding; details: protein 10 μM
Procedure: Experimental materials: hRORγ protein, fluorescent dye Sypro Orange, 10p buffer, ultrapure water, and HSP-96 well reaction plates.
Experimental method: The diluted protein (with the final concentration of 10 μM), fluorescent dye (with the final concentration of 5×), 10× TSA buffer, and double distilled water were prepared into a mixed solution with final component volumes of 1 μL, 1 μL, 1 μL, and 2 μL, receptively. The mixed solution was transferred to an HSP-96 well reaction plate, 5 μL each well. The ligand, i.e., small molecule compound, was added, 5 μL per well, with the final concentration of 200 µM. The mixture was centrifuged at room temperature at 1000 rpm for 1 minute to make the system fully mixed. The mixture was placed on an ice bath in low light for more than 30 minutes, and after that, put into RT-PCR instrument for testing. The temperature was set from 30° C. to 80° C., and the mixture was detected every time the temperature was raised by 0.5° C. and every 5 seconds.
Target sequence in this assay (P51449 whole entry): as the sequence (P51449 whole entry) above

RORα = RORα (Homo sapiens (Human), UniProt P35398); experiment: Specificity luciferase reporter assay in 293T cells, RORα; format: cell-based; details: reporter gene
Procedure: as §1, with “and” for “where”

RORγ [4] = target: T1, RORγ; experiment: ITC binding activity; details: read-out: Kd ITC, 25° C., pH 7.5
Target sequence in this assay (P51449 whole entry): as above

[5] = Pharmacokinetics in SD rats; details: for F: oral administration 10 mg/kg vs intravenous 2 mg/kg
Procedure: MATERIALS: Pharmacokinetic analysis was performed by Medicilon Corporation in Shanghai. Twelve Sprague and Dawley rats were provided by Super-B&K laboratory animal Corp. Ltd in Shanghai.
Experimental method: The compound was dissolved in DMSO:PEG 400:20% HP-400 (5:40:55, v:v:v) to serve as a stock solution (0.4 mg/ml, intravenous injection; 1 mg/ml, oral administration). The stock solution was administrated orally to three SD rats at a dose of 10 mg/kg, and administrated intravenously to three SD rats at a single dose of 2 mg/kg. Blood was collected from the jugular vein before oral administration and at 0.25, 0.5, 1, 2, 4, 6, 8, and 24 hours after oral administration. Blood was collected from the jugular vein before intravenous injection and at 0.083, 0.25, 0.5, 1, 2, 4, 6, 8, and 24 hours after intravenous injection. About 200 μL of blood sample was collected into a heparinized tube and immediately centrifuged at 8000 rpm for 6 minutes, and the resulting plasma was stored at −80° C. until analysis.

RORγ [6] = target: T1, RORγ; experiment: Specificity luciferase reporter assay in 293T cells, RORγ; details: read-out: IC50 RORγ, reporter gene
Target sequence in this assay (P51449 269-508): as the sequence (P51449 269-508) above
Procedure: The cells were cultured in a 96-well plate one day before transfection, with a cell density of 1.5×10^4 cells/well. After 24 hours of adherent growth, the cells were subjected to transient transfection by using the method of double reporter gene co-transfection with the transfection reagent of Lipo-fectamine 2000, and the transfection reagent and plasmids were diluted with Opti-MEM reagent, respectively. Gal4-RORγLBD was 25 ng per well; PG5-luc gene was 25 ng per well; and Renilla was 5 ng per well. After 24 hours of co-transfection, different concentrations of compounds were added. After 24 hours of incubation, Luciferase double reporter gene detection kit was used to detect luminescence signals. Each sample had 3 duplicate wells. The IC50 value (half inhibitory concentration) was calculated by software.

[7] = test system: 293T (human renal epithelial cell line transfected with adenovirus E1A gene, expressing SV40 large T antigen); experiment: Cell-Titer GLO cell inhibition; format: cell-based; details: Homo sapiens, HEK-293T
Procedure: (§2) Experimental materials: fluorescence signal detection instrument: EnSpire Alpha 2390 multifunctional microplate reader (produced by Perkin Elmer Company); 384-well bottom permeable microwell plate; Cell-Titer GLO luminescent reagent; cancer cells to be tested; medium and fetal bovine serum required for cell culture.
(§3) […]. After incubation with the compound for 72 to 144 hours, Cell-Titer GLO reagent 25-T was added to each well, and the plate was shaken for 20 minutes to lyse the cells. After incubation for 10 minutes, the cells were centrifuged for 1 minute, the signal value of luminescence 384 was measured. The inhibition curve was fitted by GraphPad Prism software to obtain IC50.

[8] = test system: A549 (non-small cell lung cancer); experiment: Cell-Titer GLO cell inhibition; format: cell-based; details: Homo sapiens
Procedure: as §2, §3

[9] = test system: Cos7 (African green monkey kidney cells); experiment: Cell-Titer GLO cell inhibition; format: cell-based; details: Chlorocebus sabaeus, COS-7
Procedure: as §2, §3

[10] = test system: H1975 (lung cancer cells); experiment: Cell-Titer GLO cell inhibition; format: cell-based; details: Homo sapiens, NCI-H1975
Procedure: as §2, §3

HFL-1 (lung fibroblasts) = experiment: Cell-Titer GLO cell inhibition; format: cell-based; details: Homo sapiens, HFL1
Procedure: as §2, §3

[11] = test system: HL-7702 (liver epithelial cells); experiment: Cell-Titer GLO cell inhibition; format: cell-based; details: Homo sapiens, L02
Procedure: as §2, §3

HT-29 (colon cancer) = experiment: Cell-Titer GLO cell inhibition; format: cell-based; details: Homo sapiens
Procedure: as §2, §3

[12] = test system: Hela (cervical cancer cells); experiment: Cell-Titer GLO cell inhibition; format: cell-based; details: Homo sapiens
Procedure: as §2, §3

[13] = test system: Hs578T (triple negative breast cancer); experiment: Cell-Titer GLO cell inhibition; format: cell-based; details: Homo sapiens, Hs-578T
Procedure: as §2, §3

[14] = test system: MCF-7 (ER + breast cancer); experiment: Cell-Titer GLO cell inhibition; format: cell-based; details: Homo sapiens, MCF7
Procedure: as §2, §3

[15] = test system: MDA-MB-231 (triple negative breast cancer); experiment: Cell-Titer GLO cell inhibition; format: cell-based; details: Homo sapiens
Procedure: as §2, §3

MV-4-11 (acute leukemia) = experiment: Cell-Titer GLO cell inhibition; format: cell-based; details: Homo sapiens, MV4-11
Procedure: as §2, §3

U2OS (osteosarcoma) = experiment: Cell-Titer GLO cell inhibition; format: cell-based; details: Homo sapiens
Procedure: as §2, §3

[16] = test system: VcaP (AR-positive prostate cancer); experiment: Cell-Titer GLO cell inhibition; format: cell-based; details: Homo sapiens, VCaP
Procedure: as §2, §3

[17] = test system: Du145 (AR-negative prostate cancer); experiment: Cell-Titer GLO cell inhibition; format: cell-based; details: Homo sapiens, DU-145
Source text: (§4) The inhibition curve was fitted by GraphPad Prism software to obtain IC50.

[18] = test system: PC-3 (AR-negative prostate cancer); experiment: Cell-Titer GLO cell inhibition; format: cell-based
Source text: as §4

[19] = test system: 22Rv1 (AR-positive prostate cancer); experiment: Cell-Titer GLO cell inhibition; format: cell-based; details: Homo sapiens
Source text: as §4

[20] = SD rats, intravenous injection, 2 mg/kg
[21] = Sprague-Dawley, rat, in vivo, iv, 2 mg/kg
[22] = Sprague-Dawley, rat, in vivo, po, 10 mg/kg

Sequence of RORα (P35398 whole entry): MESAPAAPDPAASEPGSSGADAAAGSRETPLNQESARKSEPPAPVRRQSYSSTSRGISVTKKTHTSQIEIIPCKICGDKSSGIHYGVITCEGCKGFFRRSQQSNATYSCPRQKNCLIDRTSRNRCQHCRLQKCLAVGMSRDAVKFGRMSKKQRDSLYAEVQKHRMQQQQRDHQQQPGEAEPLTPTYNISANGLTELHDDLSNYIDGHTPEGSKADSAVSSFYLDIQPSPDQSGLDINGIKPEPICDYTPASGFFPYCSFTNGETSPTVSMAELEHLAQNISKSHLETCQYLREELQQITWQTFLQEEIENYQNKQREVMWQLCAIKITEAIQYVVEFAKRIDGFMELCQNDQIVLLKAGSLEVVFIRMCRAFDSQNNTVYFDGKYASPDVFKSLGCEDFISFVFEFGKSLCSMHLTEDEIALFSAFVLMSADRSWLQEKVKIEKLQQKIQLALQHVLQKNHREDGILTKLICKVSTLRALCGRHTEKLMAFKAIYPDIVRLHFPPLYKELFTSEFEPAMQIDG

SMILES | IC50 (RORγ [1]) [µM] | IC50 (RORγ [2]) [µM] | ΔTm (RORγ [3]) [°C] | Kd (RORγ [4]) [µM] | Cl [5, 20] [L/h/kg] | Vz [5, 20] [L/kg] | F ([5]; SD rats) [%] | AUC(0-inf) [5, 21] [µg·h/mL] | AUC(0-t) [5, 21] [µg·h/mL] | Cmax [5, 21] [µg/mL] | half-life [5, 21] [h] | AUC(0-t) [5, 22] [µg·h/mL] | Cmax [5, 22] [µg/mL] | IC50 (RORγ [6]) [µM] | IC50 [8] [µM] | IC50 [9] [µM] | IC50 [10] [µM] | IC50 (HFL-1 (lung fibroblasts)) [µM] | IC50 [11] [µM] | IC50 (HT-29 (colon cancer)) [µM] | other results
O=C(Cc1ccccc1[N+](=O)[O-])Nc1ccc(-c2ccc(C(O)(C(F)(F)F)C(F)(F)F)cc2F)cc1 [Example 4, N-(2′-fluoro-4′-(1,1,1,3,3,3-hexafluoro-2-hydroxypropan-2-yl)-[1,1′-biphenyl]-4-yl)-2-(2-nitrophenyl)acetamide] | 3.46 ± 1.32 | 0.19 | 4.2 | 0.78 | 0.32667 ± 0.09257 | 3.42 ± 0.594 | 19 | 6.44 ± 1.72 | 3.33 ± 0.495 | 0.839 ± 0.0381 | 7.67 ± 2.36 | 3.22 ± 0.781 | 0.721 ± 0.12 | 0.19 ± 0.02 | – | – | – | – | – | – | inhibitory rate on RORα (RORα): 37%; IC50 (RORα; NA = no inhibitory effect): 7.57 ± 0.01 µM; Tmax [5, 20]: 0.19 ± 0.10 h; Tmax [5, 22]: 8 h
CS(=O)(=O)c1ccc(CC(=O)Nc2ccc(-c3ccc(C(O)(C(F)(F)F)C(F)(F)F)cc3F)cc2)cc1 [Example 1, N-(2′-fluoro-4′-(1,1,1,3,3,3-hexafluoro-2-hydroxypropan-2-yl)-[1,1′-biphenyl]-4-yl)-2-(4-(methylsulfonyl)phenyl)acetamide] | 2.28 ± 0.05 | 0.12 | 7.8 | 0.56 | 0.19373 ± 0.01228 | 3.54 ± 0.271 | 51.91 | 10.4 ± 0.664 | 7.66 ± 0.329 | 0.98 ± 0.0532 | 12.7 ± 1.21 | 21.6 ± 3.95 | 1.42 ± 0.161 | 0.12 ± 0.03 | 22 | 40 | 24 | 30 | ~34.6 | 14.6 | IC50 ([7]; 293T, ~ = estimate, read-out: IC50): 15.3 µM; IC50 [12]: 31.4 µM; IC50 [13]: 18.4 µM; IC50 [14]: 13.3 µM; IC50 [15]: ~34.7 µM; IC50 (MV-4-11 (acute leukemia)): 4.82 µM; IC50 (U2OS (osteosarcoma)): 34.5 µM; IC50 [16]: 12.8 µM; IC50 [17]: 19.1 µM; IC50 [18]: 16 µM; Tmax ([5]; SD rats, oral administration, 10 mg/kg): 5.33 ± 2.31 h; Tmax [5, 21]: 0.08 h; AUC(0-inf) [5, 22]: 24.5 ± 5.81 µg·h/mL; half-life [5, 22]: 8.67 ± 0.05 h
CCS(=O)(=O)c1ccc(CC(=O)Nc2ccc(-c3ccc(C(O)(C(F)(F)F)C(F)(F)F)cc3F)cc2)cc1 [Example 2, 2-(4-(ethylsulfonyl)phenyl)-N-(2′-fluoro-4′-(1,1,1,3,3,3-hexafluoro-2-hydroxypropan-2-yl)-[1,1 1,1′-biphenyl]-4-yl)acetamide] | – | – | – | – | – | – | – | – | – | – | – | – | – | – | 7.08 | 29 | 16 | ~31.9 | ~50 | 6.07 | IC50 [7]: 6.22 µM; IC50 [12]: 25.1 µM; IC50 [13]: 11.9 µM; IC50 [14]: 10.5 µM; IC50 [15]: ~80 µM; IC50 (MV-4-11 (acute leukemia)): 9.48 µM; IC50 (U2OS (osteosarcoma)): 15.9 µM; IC50 [16]: 13 µM; IC50 [19]: 14.5 ± 1.1 µM; IC50 [17]: 11.5 µM; IC50 [18]: 15 µM
CCCCC(=O)Nc1ccc(-c2ccc(C(O)(C(F)(F)F)C(F)(F)F)cc2F)cc1 [Example 7] | 10.2 ± 1.61 | 4.17 | 6.3 | – | – | – | – | – | – | – | – | – | – | – | – | – | – | – | – | – | –
